According to ChEMBL document CHEMBL3797190, “Development of 3,5-Dinitrobenzylsulfanyl-1,3,4-oxadiazoles and Thiadiazoles as Selective Antitubercular Agents Active Against Replicating and Nonreplicating Mycobacterium tuberculosis” (J Med Chem, 2016):
In brackets after ≈: the same amount, converted by molar mass.

Experiments:
Format in all cases: functional
[1] = system: Mycobacterium tuberculosis; test: Antimycobacterial activity against Mycobacterium tuberculosis CNCTC My 331/88 after 14 days by microdilution method; details: CNCTC My 331/88, 336 h
Mycobacterium avium [2] = test: Antimycobacterial activity against Mycobacterium avium CNCTC My 330/88 after 14 days by microdilution method; details: CNCTC My 330/88, 336 h
Mycobacterium kansasii [3] = test: Antimycobacterial activity against Mycobacterium kansasii CNCTC My 235/80 after 14 days by microdilution method; details: CNCTC My 235/80, 336 h
Mycobacterium kansasii [4] = test: Antimycobacterial activity against Mycobacterium kansasii CNCTC My 6509/96 after 14 days by microdilution method; details: CNCTC My 6509/96, 336 h
[5] = system: Mycobacterium tuberculosis; test: Antimycobacterial activity against Mycobacterium tuberculosis CNCTC My 331/88 after 21 days by microdilution method; details: CNCTC My 331/88, 504 h
Mycobacterium avium [6] = test: Antimycobacterial activity against Mycobacterium avium CNCTC My 330/88 after 21 days by microdilution method; details: CNCTC My 330/88, 504 h
Mycobacterium kansasii [7] = test: Antimycobacterial activity against Mycobacterium kansasii CNCTC My 235/80 after 21 days by microdilution method; details: CNCTC My 235/80, 504 h
Mycobacterium kansasii [8] = test: Antimycobacterial activity against Mycobacterium kansasii CNCTC My 6509/96 after 21 days by microdilution method; details: CNCTC My 6509/96, 504 h
Mycobacterium kansasii [9] = test: Antimycobacterial activity against Mycobacterium kansasii CNCTC My 235/80 after 7 days by microdilution method; details: CNCTC My 235/80, 168 h
Mycobacterium kansasii [10] = test: Antimycobacterial activity against Mycobacterium kansasii CNCTC My 6509/96 after 7 days by microdilution method; details: CNCTC My 6509/96, 168 h

| Compound | MIC99 [1] [µM] | MIC99 (Mycobacterium avium [2]) [µM] | MIC99 (Mycobacterium kansasii [3]) [µM] | MIC99 (Mycobacterium kansasii [4]) [µM] | MIC99 [5] [µM] | MIC99 (Mycobacterium avium [6]) [µM] | MIC99 (Mycobacterium kansasii [7]) [µM] | MIC99 (Mycobacterium kansasii [8]) [µM] | MIC99 (Mycobacterium kansasii [9]) [µM] | MIC99 (Mycobacterium kansasii [10]) [µM] |
| --- | --- | --- | --- | --- | --- | --- | --- | --- | --- | --- |
| O=[N+]([O-])c1ccc(CSc2nnc(-c3ccc([N+](=O)[O-])cc3)s2)cc1 | 62 (≈ 23.2 µg/mL) | 250 (≈ 93.6 µg/mL) | 250 (≈ 93.6 µg/mL) | 62 (≈ 23.2 µg/mL) | 62 (≈ 23.2 µg/mL) | 250 (≈ 93.6 µg/mL) | 250 (≈ 93.6 µg/mL) | 62 (≈ 23.2 µg/mL) | 250 (≈ 93.6 µg/mL) | 62 (≈ 23.2 µg/mL) |
| Cc1nnc(SCc2cc([N+](=O)[O-])cc([N+](=O)[O-])c2)s1 | 4 (≈ 1.25 µg/mL) | 125 (≈ 39 µg/mL) | 4 (≈ 1.25 µg/mL) | 8 (≈ 2.5 µg/mL) | 4 (≈ 1.25 µg/mL) | 125 (≈ 39 µg/mL) | 8 (≈ 2.5 µg/mL) | 16 (≈ 5 µg/mL) | 4 (≈ 1.25 µg/mL) | 8 (≈ 2.5 µg/mL) |
| Cc1ccc(-c2nnc(SCc3cc([N+](=O)[O-])cc([N+](=O)[O-])c3)s2)cc1 | 0.125 (≈ 0.0486 µg/mL) | > 125 | 0.5 (≈ 0.194 µg/mL) | 1 (≈ 0.388 µg/mL) | 0.125 (≈ 0.0486 µg/mL) | > 125 | 1 (≈ 0.388 µg/mL) | 2 (≈ 0.777 µg/mL) | 0.5 (≈ 0.194 µg/mL) | 0.5 (≈ 0.194 µg/mL) |
| COc1cc(OC)cc(-c2nnc(SCc3cc([N+](=O)[O-])cc([N+](=O)[O-])c3)o2)c1 | 0.125 (≈ 0.0523 µg/mL) | 16 (≈ 6.69 µg/mL) | 0.25 (≈ 0.105 µg/mL) | 0.5 (≈ 0.209 µg/mL) | 0.125 (≈ 0.0523 µg/mL) | 16 (≈ 6.69 µg/mL) | 0.5 (≈ 0.209 µg/mL) | 1 (≈ 0.418 µg/mL) | 0.125 (≈ 0.0523 µg/mL) | 0.125 (≈ 0.0523 µg/mL) |
| Nc1cc(N)cc(CSc2nnc(-c3ccc([N+](=O)[O-])cc3)s2)c1 | 250 (≈ 89.9 µg/mL) | 250 (≈ 89.9 µg/mL) | 250 (≈ 89.9 µg/mL) | 250 (≈ 89.9 µg/mL) | 250 (≈ 89.9 µg/mL) | 250 (≈ 89.9 µg/mL) | 250 (≈ 89.9 µg/mL) | 250 (≈ 89.9 µg/mL) | 250 (≈ 89.9 µg/mL) | 250 (≈ 89.9 µg/mL) |
| Cc1ccc(-c2nnc(SCc3cc([N+](=O)[O-])cc(C(F)(F)F)c3)o2)cc1 | > 32 | > 500 | > 32 | > 32 | > 32 | > 500 | > 32 | > 32 | > 32 | > 32 |
| Cc1cc(C)cc(-c2nnc(SCc3cc([N+](=O)[O-])cc([N+](=O)[O-])c3)s2)c1 | 0.125 (≈ 0.0503 µg/mL) | > 16 | 1 (≈ 0.402 µg/mL) | 0.5 (≈ 0.201 µg/mL) | 0.125 (≈ 0.0503 µg/mL) | > 16 | 1 (≈ 0.402 µg/mL) | 0.5 (≈ 0.201 µg/mL) | 0.25 (≈ 0.101 µg/mL) | 0.25 (≈ 0.101 µg/mL) |
| O=[N+]([O-])c1ccc(CSc2nnc(-c3ccncc3)o2)c([N+](=O)[O-])c1 | 8 (≈ 2.87 µg/mL) | 62 (≈ 22.3 µg/mL) | 32 (≈ 11.5 µg/mL) | 32 (≈ 11.5 µg/mL) | 8 (≈ 2.87 µg/mL) | 62 (≈ 22.3 µg/mL) | 32 (≈ 11.5 µg/mL) | 32 (≈ 11.5 µg/mL) | 16 (≈ 5.75 µg/mL) | 32 (≈ 11.5 µg/mL) |
| O=[N+]([O-])c1ccc(-c2nnc(SCc3cc([N+](=O)[O-])cc(C(F)(F)F)c3)s2)cc1 | > 32 | > 500 | > 32 | > 32 | > 32 | > 500 | > 32 | > 32 | > 32 | > 32 |
| O=[N+]([O-])c1ccc(CSc2nnc(-c3ccccc3)s2)c([N+](=O)[O-])c1 | 8 (≈ 3 µg/mL) | 8 (≈ 3 µg/mL) | 4 (≈ 1.5 µg/mL) | 2 (≈ 0.749 µg/mL) | 16 (≈ 5.99 µg/mL) | 32 (≈ 12 µg/mL) | 4 (≈ 1.5 µg/mL) | 4 (≈ 1.5 µg/mL) | 1 (≈ 0.374 µg/mL) | 1 (≈ 0.374 µg/mL) |
| O=[N+]([O-])c1ccc(-c2nnc(SCc3cc([N+](=O)[O-])cc(C(F)(F)F)c3)o2)cc1 | 32 (≈ 13.6 µg/mL) | > 500 | 32 (≈ 13.6 µg/mL) | 32 (≈ 13.6 µg/mL) | 32 (≈ 13.6 µg/mL) | > 500 | 32 (≈ 13.6 µg/mL) | 32 (≈ 13.6 µg/mL) | 16 (≈ 6.82 µg/mL) | 16 (≈ 6.82 µg/mL) |
| O=[N+]([O-])c1cc(CSc2nnc(-c3ccc(O)cc3)o2)cc([N+](=O)[O-])c1 | 1 (≈ 0.374 µg/mL) | 62 (≈ 23.2 µg/mL) | 8 (≈ 2.99 µg/mL) | 8 (≈ 2.99 µg/mL) | 1 (≈ 0.374 µg/mL) | 62 (≈ 23.2 µg/mL) | 16 (≈ 5.99 µg/mL) | 16 (≈ 5.99 µg/mL) | 4 (≈ 1.5 µg/mL) | 4 (≈ 1.5 µg/mL) |
| Cc1nnc(SCc2cc([N+](=O)[O-])cc([N+](=O)[O-])c2)o1 | 4 (≈ 1.19 µg/mL) | 500 (≈ 148 µg/mL) | 8 (≈ 2.37 µg/mL) | 16 (≈ 4.74 µg/mL) | 8 (≈ 2.37 µg/mL) | 500 (≈ 148 µg/mL) | 16 (≈ 4.74 µg/mL) | 32 (≈ 9.48 µg/mL) | 4 (≈ 1.19 µg/mL) | 16 (≈ 4.74 µg/mL) |
